Experimental findings from US8916571B2, “Methods of treating cancer using inhibitors of 5′-methylthioadenosine phosphorylase” (Albert Einstein College of Medicine of Yeshiva University, priority 2006, dated 2014) are described below.

Each structure is given as a SMILES string.

The subject of one test is FaDu cells. Nature of the test: Cell cycle and apoptosis analysis of FaDu cells (propidium staining, FACS). The test is classed as cell-based, human. To be noted: 6 days. The procedure:
FaDu cells were maintained in MEM Eagle's media supplemented with 10% fetal bovine serum, 100 units/ml penicillin, 100 μg/mL streptomycin, 0.1 mM non essential amino acids and 1 mM sodium pyruvate. Cell survival was evaluated using the WST-1 assay (Kicska G A, long Li, Honig H, et al. Proc Natl Acad Sci USA 2001; 98:4593-98). Cells were seeded onto 96 well plates at a density of 10^4 cells per well, with either no additions, 1 μM compound (2), 20 μM MTA or 1 μM compound (2)+20 μM MTA, IC50 was determined following the manufacturer's protocol (Roche Applied Science, Ind.). Cells were grown and measured in triplicate or quadruplicate and the error bars show the mean±SD of the multiple samples.
FaDu cells were subjected to six days in culture using the same conditions described as for Example 4, before staining with propidium […] and FACS cell sorting analysis.

Test [1] concerns mouse lung cancer cells (3LL). Nature of the test: Mouse 3LL lung cancer cell culture study. The test is classed as cell-based. The procedure: Growth of 3LL and RM1 cells was in Dulbecco's modified Eagle's medium containing serum and antibiotics with 5 mM sodium pyruvate and 0.25 mM non essential amino acid mixture (Gibco). Compound (1) was added as a sterile solution and MTA was absent or present at 20 μM.

In test [2] the test system is TRAMP (transgenic adenocarcinoma of mouse prostate) mice. Nature of the test: Treatment of TRAMP mice (tumour mass, metastasis, MRI, histology, polyamines). It counts as in vivo. Particulars: TRAMP mice, alone or in combination with MTA. On the procedure:
MRI experiments were performed using a 9.4T 21 cm bore horizontal bore magnet (Magnex Scientific) Varian INOVA MRI system (Fremont, Calif.) equipped with a 28 mm inner diameter quadrature birdcage coil. Mice were anesthetized with isoflurane inhalation anesthesia (1-1.5% in 100% O2 administered via a nose cone) and positioned in the MRI coil. Body temperature was maintained (37-38° C.) using a homeothermic warming system. After acquiring scout images, multi-slice spin-echo imaging with an echo time of 18 ms and a repetition time of 400 ms ms was performed. A 40 mm field of view with a 256×256 matrix size was used. Nine to 15 slices along the transverse, sagittal, and coronal planes were acquired in each multi-slice experiment with a slice thickness of 1 mm and the gap between slices of 0.5 mm. MRI data were processed off-line with MATLAB-based MRI analysis software.
Spent media and perchloric acid extracts of both PC3 cells and tissue samples were subjected to purification via cation exchange chromatography and dansyl-derivatized with minor changes. Disposable 10 ml BIO-RAD columns were centrifuged at 4,000 rpm for 3 minutes. Sodium carbonate used for derivatization was adjusted to pH 9.3 and the concentration of dansyl-chloride was adjusted to 100 mM. Dansyl-polyamines were quantitated by a Waters HPLC/Fluorescence system. A Phenomenex Luna 5μ C18 column was used with a mobile phase of 30% acetonitrile in a 50 mM ammonium acetate buffer at pH 6.8 (eluent A) and 100% acetonitrile (eluent B). Fluorescence detection was monitored by excitation at 338 nm and emission at 500 nm.
Long-Term: Sterile solutions of 100 μM compound (2) (pH ˜6.4). Water bottles were autoclaved prior to filling with sterile inhibitor solutions. Water consumption was monitored every other day, with fresh inhibitor solution being administered to prevent bacterial growth. Mice were control-sacrificed and tissues (genitourinary system, liver, lungs) were collected for histology and polyamine analysis. Mass and dimensions of excised genitourinary system tumours were recorded. Sections of small intestine were also removed for toxicity analysis via H&E staining.

With `CSC[C@H]1O[C@@H](n2cnc3c(N)ncnc32)[C@H](O)[C@@H]1O` [MTA, methylthioadenosine], in the test with FaDu cells (single agent), the Apoptosis worked out at 6.66%, the G1 stood at 79.67%, the G2 turned out to be 9.91% and the S turned out to be 10.42%.

Consider `Nc1ncnc2c(CN3CC(O)[C@@H](CSCc4ccccc4)C3)c[nH]c12` (some centres unmarked) [compound (1)], for which the “response of mouse lung cancer cells in culture” value is on record as “not responding” in test [1] (in the absence of MTA) and “responding” in test [1] (in the presence of 20 μM MTA).

In the test on FaDu cells (MTA+compound), `CSC[C@H]1N[C@@H](c2c[nH]c3c(N)ncnc23)C(O)C1O` (some centres unmarked) [compound (3)] gave an Apoptosis of 29.41%, a G1 of 8.26%, a G2 of 60.49% and an S of 31.25%. In the test on FaDu cells (single agent), this compound registered an Apoptosis of 7.89%, a G1 of 72.06% and an S of 17.98%. Also, the prostate cancer progression result in test [2] is recorded as “inhibits prostate cancer progression”.
